Results taken from patent US9839632B2, “Methods and compositions using 4-amino-2-(2,6-dioxo-piperidine-3-yl)-isoindoline-1,3-dione for treatment and management of central nervous system cancers” (CELGENE CORPORATION, priority 2013, dated 2017).
Where two headings read alike, the source gives them in different places.

Legend:
[1] = tested on: U937 cells cocultured with OCI-LY10 lymphoma cells; assay: Polarization of U937 cocultured with OCI-LY10 lymphoma cells with or without YTS NK cells; type: cell-based, human; details: for M2 polarization of U937 cells (FXIIIA, pSTAT6): coculture with OCI-LY10 lymphoma cells, without NK cells; for polarization status of U937 cells (iNOS, pSTAT1): triple culture with OCI-LY10 lymphoma cells and YTS NK cells, 10 ug/ml 48 hours
Procedure: Raji lymphoma cells (ATCC), U937 human monocyte cells (ATCC) and YTS NK cells (a gift from Dr. Pamela A. Becker) were cultured at 37° C. in a humidified incubator under 5% CO2 and 95% air in RPMI-1640 supplemented with 20% FCS and 1% penicillin-streptomycin, and 1% nonessential amino acids.
OCI-LY10 lymphoma cells (a gift from Arthur L. Shaffer III) were cultured at 37° C. in a humidified incubator under 5% CO2 and 95% air in IMDM supplemented with 20% FCS and 1% penicillin-streptomycin. Co-culture of lymphoma cells and U937 monocytes: Raji and U937 monocytes were cultured at 37° C. in a humidified incubator under 5% CO2 and 95% air in RPMI-1640 supplemented with 20% FCS and 1% penicillin-streptomycin, and 1% nonessential amino acids. OCI-LY10 and U937 monocytes were cultured at 37° C. in a humidified incubator under 5% CO2 and 95% air in IMDM supplemented with 20% FCS and 1% penicillin-streptomycin. Triple culture of lymphoma cells, U937 monocytes and YTS cells: Raji, U937 and YTS cells were cultured at 37° C. in a humidified incubator under 5% CO2 and 95% air in RPMI-1640 supplemented with 20% FCS and 1% penicillin-streptomycin, and 1% nonessential amino acids. OCI-LY10, U937 and YTS were cultured at 37° C. in a humidified incubator under 5% CO2 and 95% air in IMDM supplemented with 20% FCS and 1% penicillin-streptomycin.
(§1) Treatments: In experiments in which IL-4 was used to induce M2 polarization of macrophages, cells were treated with IL-4 (20 ng/ml) for 48 hours followed by treatment with 4-amino-2-(2,6-dioxo-piperidine-3-yl)-isoindoline-1,3-dione (10 ug/ml) or DMSO control for 48 hours. In triple cell culture experiments with lymphoma cells, macrophages, and NK cells, the treatment was with either DMSO or 4-amino-2-(2,6-dioxo-piperidine-3-yl)-isoindoline-1,3-dione (10 ug/ml) for 48 hours.
Immunofluorescence for analysis of macrophage polarization in cell culture experiments: Live cells were fixed in 10% formalin for 30 minutes at room temperature followed by permeabilization with PBS-0.2% Triton X-100 for 2 min. After blocking with PBS-5% goat serum-0.02% Triton X-100 for 30 minutes at 37° C., the cells were incubated overnight at 4° C. with rat monoclonal F4/80 antibody (for primary microglia cells, 1:200 Abcam), rat monoclonal CD11b (for U937, 1:200 Biolegend), rabbit polyclonal Ym1 antibody (for primary microglia cells and primary peritoneal macrophages, 1:200, Stemcell Technologies, Vancouver, Canada), rabbit polyclonal FXIII A antibody (for U937, 1:200, Abcam), mouse monoclonal p-STAT1 antibody (1:200, Abcam), rabbit polyclonal p-STAT6 antibody (1:200, Abcam) or rabbit iNOS antibody (1:200, Calbiochem). […]

[2] = tested on: primary murine microglia cells cocultured with Raji lymphoma cells; assay: Polarization of primary murine microglia cocultured with Raji lymphoma cells with or without primary murine NK cells; type: cell-based; details: for M2 polarization of microglia cells (FXIIIA, pSTAT6): coculture with Raji lymphoma cells, without NK cells; for polarization status of microglia cells (iNOS, pSTAT1): triple culture with Raji lymphoma cells and primary murine NK cells, 10 ug/ml 48 hours
Procedure: as §1
(§2) Immunofluorescence for analysis of macrophage polarization in cell culture experiments: Live cells were fixed in 10% formalin for 30 minutes at room temperature followed by permeabilization with PBS-0.2% Triton X-100 for 2 min. After blocking with PBS-5% goat serum-0.02% Triton X-100 for 30 minutes at 37° C., the cells were incubated overnight at 4° C. with rat monoclonal F4/80 antibody (for primary microglia cells, 1:200 Abcam), rat monoclonal CD11b (for U937, 1:200 Biolegend), rabbit polyclonal Ym1 antibody (for primary microglia cells and primary peritoneal macrophages, 1:200, Stemcell Technologies, Vancouver, Canada), rabbit polyclonal FXIII A antibody (for U937, 1:200, Abcam), mouse monoclonal p-STAT1 antibody (1:200, Abcam), rabbit polyclonal p-STAT6 antibody (1:200, Abcam) or rabbit iNOS antibody (1:200, Calbiochem). After washing, cells were incubated with the Alexa Fluor 594 Goat anti-Rat IgG secondary antibody (1:1000, Life Technologies) and FITC Donkey anti-rabbit IgG secondary antibody (1:1000, Life technology) or FITC Goat anti-mouse IgG secondary antibody (1:1000, Sigma) at 37° C. for 45 minutes. Finally, Vectashield H-1200 mounting medium with DAPI (Vector Laboratories) was used to stain the nuclei. Images were obtained on a Zeiss LSM 510 META confocal microscope.

[3] = tested on: primary murine microglia cells cocultured with OCI-LY10 lymphoma cells; assay: Polarization of primary murine microglia cocultured with OCI-LY10 lymphoma cells with or without primary murine NK cells; type: cell-based; details: for M2 polarization of microglia cells (FXIIIA, pSTAT6): coculture with OCI-LY10 lymphoma cells, without NK cells; for polarization status of microglia cells (iNOS, pSTAT1): triple culture with OCI-LY10 lymphoma cells and primary murine NK cells, 10 ug/ml 48 hours
Procedure: as §1, §2

[4] = tested on: primary murine microglia cells; assay: Phagocytosis assay, primary murine microglia cells; type: cell-based; details: 3 or 10 ug/ml, 48 hours, P<0.05 vs control
Procedure: (§3) Phagocytosis assay: The impact of 4-amino-2-(2,6-dioxo-piperidine-3-yl)-isoindoline-1,3-dione on the phagocytic activity of macrophages was assessed in primary microglial cells and human monocyte cells (U937). The cells were cultured in complete medium for 4 days. They were then harvested and resuspended in Opti-MEM medium at 10^6 cells/ml and seeded in a 96 well plate at 100,000 viable cells/well. The experimental wells were treated with 4-amino-2-(2,6-dioxo-piperidine-3-yl)-isoindoline-1,3-dione 3 or 10 ug/ml. After 48 hours of treatment, the culture medium was quickly replaced with 100 ul of pHrodo BioParticles suspension (Life technologies and the cells were incubated in the suspension at 37° C. for 2-3 hours. Following incubation, the plates were scanned at 550 nm/600 nm (excitation/emission) using fluorescence plate reader. The fluorescence activity reflects the phagocytic activity of the macrophages. The impact of 4-amino-2-(2,6-dioxo-piperidine-3-yl)-isoindoline-1,3-dione treatment (% effect) was calculated as a fraction of the phagocytic activity in the positive control wells. Wan, C. P.; et al., J. Immunol. Methods, 1993, 162, pp. 1-7.

[5] = tested on: human monocyte U937 cells; assay: Phagocytosis assay, human monocyte U937 cells; type: cell-based; details: 3 or 10 ug/ml, 48 hours, P<0.05 vs control
Procedure: as §3

[6] = fasted male CD-IGS rats, cited from earlier work; for F: PO 50 mg/kg vs IV 5 mg/kg
[7] = listed as 4-amino-2-(2,6-dioxo-piperidine-3-yl)-isoindoline-1,3-dione

For `Nc1cccc2c1C(=O)N(C1CCC(=O)NC1=O)C2=O` (centres unmarked) [Pomalidomide, 4-amino-2-(2,6-dioxo-piperidine-3-yl)-isoindoline-1,3-dione], the “M2 polarization of U937 cells (FXIIIA, pSTAT6)” value [1] was “reversed”, the “M2 polarization of U937 cells (FXIIIA, pSTAT6)” value [1, 7] was “prevented the M2 polarization of macrophages but did not induce them into M1 polarization” and the “polarization status of U937 cells (iNOS, pSTAT1)” value [1] was “from M2 to M1”. The “polarization status of U937 cells (iNOS, pSTAT1)” value [1, 7] was “became M1-polarized”, the “M2 polarization of microglia cells (FXIIIA, pSTAT6)” value (“M2 polarization of microglia cells” for short) [2] was “reversed” and the “M2 polarization of microglia cells” value [2, 7] was “M2 polarization was not seen”. For the same molecule, the “polarization status of microglia cells (iNOS, pSTAT1)” value [2] was “from M2 to M1”, the “polarization status of microglia cells (iNOS, pSTAT1)” value [2, 7] was “became M1-polarized” and the “M2 polarization of microglia cells” value [3] was “reversed”. The “M2 polarization of microglia cells” value [3, 7] was “M2 polarization was not seen”, the “polarization status of microglia cells (iNOS, pSTAT1)” value [3] was “from M2 to M1” and the “polarization status of microglia cells (iNOS, pSTAT1)” value [3, 7] was “became M1-polarized”. For the same molecule, the phagocytic activity [4] was “significantly increased”, the phagocytic activity [5] was “significantly increased” and the F [6] was 47.4%. The F ([6]; listed as CC-4047) was 47.4 ± 15.2%, the “AUC(0-inf)” value ([6]; single IV 5 mg/kg, n = 5) was 7016 ± 1551 ng·h/mL and the CL ([6]; single IV 5 mg/kg, n = 5) was 12.3 mL/min/kg. The T1/2 ([6]; single IV 5 mg/kg, n = 5) was 2.44 ± 0.8 h, the Vss ([6]; single IV 5 mg/kg, n = 5) was 1.75 L/kg and the “AUC(0-24)” value ([6]; single PO 50 mg/kg, n = 4) was 33155 ± 8561 ng·h/mL. The Cmax ([6]; single PO 50 mg/kg, n = 4) was 3372 ± 758 ng/mL and the Tmax ([6]; single PO 50 mg/kg, n = 4) was 2.0 ± 0.0 h.
